Structures are written as SMILES.

The subject of the experiment is osteoclasts derived from RAW-GFP deposited onto a layer of MC3T3-type osteoblast cells. Put plainly: Crossing of the osteoblast layer by osteoclasts in the bone system model (confocal microscopy). The format is cell-based, murine. The following applies: PP2 at 10 μM; untreated osteoclasts cross the layer after 1 hour to 1 hour 30 min; FIG. 4. The method, then: FIG. 4, images obtained by confocal microscopy 3D analysis, showing the organization of the two cell types according to the section along Z, in order to determine the effects of PP2 (FIG. 4B) in comparison with the control trial (FIG. 4A).
Cells of the murine osteoblast line MC 3T3 are placed in culture in α-MEM medium supplemented with 10% by volume of fetal calf serum, 10^−8M dexamethasone and 0.028 mM ascorbic acid. The cells are then detached and seeded at confluence onto the mineralized support.
The osteoclasts derived from human or murine primary cultures or from lines (for example, the RAW line or the human line GCT23) are obtained after 7 days of differentiation as described in Destaing et al. (Mol Biol Cell, Podosomes display actin turnover and dynamic self-organization in osteoclasts expressing actin-green fluorescent protein, 14(2):407-16, 2003). The osteoclast precursors are cultured in the presence of α-MEM medium supplemented with 10% by volume of fetal calf serum and of two recombinant cytokines: M-CSF and RANK-L ([…]). The cells are placed at 37° C. and 5% of CO2 and the medium is changed every two days for 7-8 days. The differentiated osteoclasts are detached with a solution of EDTA at 0.25 mM diluted in 1×PBS. The osteoclasts are seeded at a density of 10 cells/mm^2.
An inhibitor of the Src tyrosine kinase, PP2, was tested in the model according to the invention. […]

For the compound `CC(C)(C)n1nc(-c2ccc(Cl)cc2)c2c(N)ncnc21` [PP2], the “crossing (invasion) of the osteoblast cell layer by the osteoclasts” value is “the osteoclasts no longer cross the osteoblast cell layer”.
